This is an account of results in the NIST ThermoML archive (doi:10.1021/acs.jced.6b00268).

Each structure is given as a SMILES string. ± gives the expanded uncertainty stated by the source.

Data set [1] in a line: Molar enthalpy of transition or fusion. To be noted: Crystal; DSC.
The conditions of data set [2]: Crystal; DTA.

`CC(C)OC(=O)C(C)(C)Oc1ccc(C(=O)c2ccc(Cl)cc2)cc1` [fenofibrate]: the “Molar enthalpy of transition or fusion” value in data set [1] stood at 7.45 ± 0.167 kcal/mol. In data set [2], the Normal melting temperature was 80.47 ± 1.1 °C.
